Target: T1, APOBEC3G (Homo sapiens, UniProt Q9HC16)
T1 construct: expressed in transfected cells; crude lysate treated with RNase A
Assay: Fluorescence-based APOBEC3G DNA cytosine deaminase assay for HTS, APOBEC3G containing cell lysate
Type: biochemical
Details: for inhibited cytosine deaminase activity (FIG. 5): LOPAC1280 library screened in quadruplicate, cell lysate
Excerpt: FIG. 4 contains a schematic of a fluorescence based APOBEC3G DNA cytosine deaminase activity assay. The single-strand DNA oligonucleotide substrate has 3 features: i) an APOBEC3G deamination target cite 5′CCCA (with the 3rd C strongly preferred by APOBEC3G), ii) a fluorescent 6-FAM label on the 5′ end (excitable by 490 nm wavelength light) and iii) a 6-FAM ‘quenching’ molecule TAMRA on the 3′ end. This intact ssDNA substrate emits low levels of background fluorescence because the 6-FAM is quenched by the nearby TAMRA. Low-molecular mass (LMM) APOBEC3G, derived from an RNase sensitive high-molecular mass (HMM) cellular complex, efficiently deaminates the indicated cytosine base yielding a uracil. Uracil DNA glycosylase excises the uracil base, which creates an a-basic site that is sensitive to hydrolytic attack by the hydroxide ion of NaOH or heated water (H2O). Finally, cleavage of the ssDNA frees 6-FAM from inhibition by TAMRA and results in fluorescence (490 nm light is used to excite 6-FAM and fluorescence is detected at 517 nm).
APOBEC3G containing cell lysates were prepared from near-confluent APOBEC3G expressing 293 stable cell line (211-21, Harris et al., Cell 2003). DMEM growth medium was aspirated and the cells suspended in 1xPBS, 1 mM EDTA, pH 7.4. The cells were pelleted at 1.2K rpm for 5-10 minutes. The supernatant was aspirated and the tube containing the pelleted cells was placed on ice. Thirty mL of lysis buffer (25 mM HEPES, pH7.4, 150 mM NaCl, 0.5% Triton X-100, 1 mM EDTA, 1 mM MgCl2, 1 mM ZnCl2, 10% Glycerol, and Roche EDTA free complete protease inhibitor (added before use)) was added per 3-5 g cell pellet along with 20 μg/mL RNase A (from Qiagen, catalog no. 19101, 100 mg/ml RNase A solution) and the cells suspended by pipetting. The cells were transferred to a cold homogenizer and homogenized for 10 strokes. […] The protein concentration in the cell lysate was quantified using a Bio-Rad protein assay kit or DC protein assay kit, following the manufacturer's instructions.
A fluorescence-based deaminase activity assay for HTS was performed as follows: 1) 20 μl of the crude cell lysate (15 μg protein, diluted in cell lysis buffer, pH7.4) was placed into 384 well plates using Perkin Elmer flexdrop. […] 5) 3 μl N HCl+27 μl 2 M Tris.Cl (pH7.9) was added using Perkin Elmer flexdrop, mixed by shaking, and fluorescence read with excitation at 492 nm and emission at 517 nm at room temperature in LJL Analyst AD.
A 1280 compound library (LOPAC^1280™, from Sigma-Aldrich) was screened in quadruplicate using the method set forth in Example 1. […] In these experiments, each compound was evaluated a total of four times—twice on one day and twice more on the following day. […]

T1 sequence (Q9HC16 whole entry): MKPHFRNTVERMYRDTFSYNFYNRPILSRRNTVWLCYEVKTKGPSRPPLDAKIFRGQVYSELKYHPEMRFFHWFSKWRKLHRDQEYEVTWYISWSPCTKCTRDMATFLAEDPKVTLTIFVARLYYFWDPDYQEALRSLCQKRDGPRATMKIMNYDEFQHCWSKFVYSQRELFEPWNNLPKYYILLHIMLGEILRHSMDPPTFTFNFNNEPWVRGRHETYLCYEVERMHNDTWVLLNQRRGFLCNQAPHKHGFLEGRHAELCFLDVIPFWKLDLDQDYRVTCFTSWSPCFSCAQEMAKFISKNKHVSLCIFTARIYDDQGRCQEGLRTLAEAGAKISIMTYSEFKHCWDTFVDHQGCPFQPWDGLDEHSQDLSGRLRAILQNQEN

| inhibition at 10 µM (repeated screen, cell lysate incubated with 10 μM solution of the compound in DMSO, read-out: inhibition of fluorescence relative to positive controls (primary active)) | Structure (SMILES) | inhibited cytosine deaminase activity (FIG. 5) |
| --- | --- | --- |
| – | O=C(O)C1=CC(=C(c2ccc(O)c(C(=O)O)c2)c2ccc(O)c(C(=O)O)c2)C=CC1=O [ATA] | Inhibitors of cytosine deaminase |
| – | Cc1nc(N=Nc2cc(S(=O)(=O)O)c3cc([N+](=O)[O-])cc(S(=O)(=O)O)c3c2)c(COP(=O)(O)O)c(C=O)c1O [PPNDS] | Inhibitors of cytosine deaminase |
| – | O=C(O)c1cc[c]([Hg][Cl])cc1 [4-chloromercuribenzoic acid] | Inhibitors of cytosine deaminase |
| ≥ 35% | Cc1ccc(C(=O)Nc2ccc(S(=O)(=O)O)c3cc(S(=O)(=O)O)cc(S(=O)(=O)O)c23)cc1NC(=O)c1cccc(NC(=O)Nc2cccc(C(=O)Nc3cc(C(=O)Nc4ccc(S(=O)(=O)O)c5cc(S(=O)(=O)O)cc(S(=O)(=O)O)c45)ccc3C)c2)c1 [suramin] | – |
